Reference: a melting point compilation (Tetko et al.; mined from patent text by program, amines drawn as free bases though some values may be those of a salt)

SMILES | melting point [°C]
COC(=O)N(CC(=O)OC(C)(C)C)S(=O)(=O)c1ccc(N2CCC(NC[C@H](O)c3ccc(O)c(NS(C)(=O)=O)c3)CC2)cc1 | 110 to 115
CC(C)C(=O)c1cn(-c2c(Cl)cc(C(F)(F)F)cc2Cl)nc1C#N | 168 to 169
O=c1[nH]cc(C(F)(F)F)cc1Br | 162 to 165
CC(=O)OC1CCC2(C)C(CCC3C4CC5OC6(CC(C)C(C)(C)O6)C(C)(O)C5C4(C)CC(OC(C)=O)C32)C1 (centres undefined) | 253 to 256
Cc1c(C)c2ccc(OCCCN3CCC(=NO)CC3)cc2oc1=O | 198 to 200
NC(=S)c1ncn(C2OC(CO)C(O)C2O)n1 (centres undefined) | 173 to 175
CCOC(=O)CC(c1ccccc1)C(C#N)c1ccccc1 (centres undefined) | 60.5 to 63
CN1C2C=C(c3ccc(F)cc3)CC1CC2 (centres undefined) | 62 to 63
Cn1c(C(F)(F)F)cc(=O)n(-c2cc(OS(C)(=O)=O)c(Cl)cc2F)c1=O | 176 to 178
Nc1cnc(NCC2CCCCC2)nc1O | 180
CN1CCC(OC2c3ccccc3CCn3cc(I)nc32)CC1 (centres undefined) | 126
c1cnc(-c2cccnc2)nc1 | 51 to 52
CCCNc1ncc2c(=O)[nH]c(-c3ccccc3OCCC)nc2n1 | 185 to 187
COc1ccccc1N1CCN(CCCNC(=O)c2cccc3c(=O)c(C)c(C4CCC(C)CC4)oc23)CC1 (centres undefined) | 166
Cc1ccc(-c2nnc(N3CCC(OC(=O)Oc4ccccc4)CC3)nc2-c2ccc(C)cc2)cc1 | 142 to 143
COc1ccc(C(=O)c2ccc(OCc3nc(-c4ccccc4)oc3C)nc2)c(OC(C)C(=O)O)c1 (centres undefined) | 162 to 163
COC1CCC2C3CCC4CC(=O)C(C)(C)CC4(C)C3CCC12C (centres undefined) | 116 to 120
CCn1cc(C(=O)O)c(=O)c2cc(F)c(N[C@@H]3CCC[C@@H]3N)cc21 (relative stereo) | 233 to 235
CCCC1(CC(=O)O)OCCc2c1[nH]c1c(C)ccc(C(=O)NC)c21 (centres undefined) | 89 to 91
CCc1nc2c(N)nc3cc(CCC(N)=O)ccc3c2n1CC1CCOCC1 | 197 to 199

SMILES | melting point [°C]
Cc1nc(-c2cn(CC3CC3)nn2)sc1C(=O)NCc1cccnc1 | 140 to 141
CC(C)(C)c1cc(N(C(=O)CCCC(=O)O)c2ccccc2)cc(C(C)(C)C)c1O | 168 to 170
Nc1nccn2c(C3CCC3)nc(-c3cccc(OCc4ccccc4)c3F)c12 | 88 to 89
Cn1c(COc2ccc(CC3SC(=O)N(C(c4ccccc4)(c4ccccc4)c4ccccc4)C3=O)cc2)nc2cncnc21 (centres undefined) | 55 to 65
CC(=NCc1ccc(Cl)cc1Cl)c1ccc(OCC(O)(Cn2cncn2)C(C)(C)C)cc1 (centres undefined) | 101
COc1ccc2c(c1)CC(C)C1C2C(C)CC2(C)C(O)CCC12 (centres undefined) | 130 to 131
CC(C)OC(=O)CS(=O)(=O)C=C1SC=CS1 | 127 to 128
C=CCOc1ccc(OC(C(O)C(C)(C)C)n2cncn2)cc1 (centres undefined) | 85
CC(C)(C)c1cc(Cn2c(=O)n(Cc3cc(C(C)(C)C)c(O)c(C(C)(C)C)c3)c(=O)n(Cc3cc(C(C)(C)C)c(O)c(C(C)(C)C)c3)c2=O)cc(C(C)(C)C)c1O | 218 to 219
COc1ccc(-c2ccc(C(=O)Nc3ccc4cc(CN5CCCC5)cnc4c3F)cc2)cc1 | 217 to 220
CCCOCC1CC2CCC13CN(CCC)CCC31c3cccc(O)c3OC21 (centres undefined) | 123 to 124
O=C(NCCCCC1CCSS1)N1CCCC1 (centres undefined) | 91 to 93
CC(C)CC(NC(=O)OCc1ccccc1)C(=O)NC(C#N)COCc1ccccc1 (centres undefined) | 126 to 127
CCOC(=O)c1c(NC(=O)NCC(=O)OC)sc(C)c1C | 151
COC(=O)CCn1nnnc1CC[C@H](NC(=O)OCc1ccccc1)C(=O)OC | 80 to 81
COc1cc2c(c(Cl)c1Cl)C(=O)C(C)(C(C)C)C2 (centres undefined) | 143
CCCCNc1c(N)c(N)nc(C)c1C(=O)OCC | 82 to 83
CCC(=O)NC1Cc2ccccc2C(Cc2ccccc2)C1 (centres undefined) | 148 to 149
COc1c(C)c(C)c2c(c1C)C(CO)C(C)(C)O2 (centres undefined) | 79 to 81
CC(C)(C)OC(=O)NN(Cc1ccc(-c2cnccn2)cc1)C[C@H](O)[C@@H](N)Cc1ccccc1 | 146 to 148

The next lines start with the values.

melting point [°C] | SMILES
119 to 120 | CCOc1ccc(-c2nc(-c3ccc(N4CCOCC4)c([N+](=O)[O-])c3)cs2)cc1OCC
129 to 130 | Cc1ccc(C(=O)c2ccc(Cl)cc2)cc1
143 to 144 | CCOC(=O)C(=C(c1ccc(F)cc1)c1ccc(F)cc1)c1nnn(C(C)(C)C)n1
151 to 157 | CN1CCN(CCc2nc3cc(Br)c4ccccc4c3n2C)CC1
123 to 124 | COC(=O)CCCc1cc2nc(Cl)ccc2n1S(=O)(=O)c1ccc(-c2ccccn2)cc1
260 to 262 | Cc1ccc(N2CN(c3ccccc3)c3[nH]ncc3C2=O)cc1
105 to 106 | COCOc1ccccc1-c1cc(-c2ccc(OC)c(C(=O)OC)c2)c(C#N)c(NC(=O)c2cccs2)n1
281 | Cc1[nH]c(=O)[nH]c(=O)c1[N+](=O)[O-]
148 to 150 | Cc1ccc(C)c(CN2C(=O)c3ccccc3C2=O)c1
196 to 198 | CC1(C)OC(=O)Nc2ccc(/C=C/C(N)=O)cc21
352 to 355 | N=C(NO)c1cccc(-c2ccc(O)c(-c3nc4cc(C(=N)NO)ccc4[nH]3)c2)c1
194 to 196 | CC1(c2ccc(-c3ccc(F)cc3)cc2)CC(=O)NN1 (centres undefined)
150 to 153 | Cc1ccc(NC(=O)c2snnc2C2CC2)cc1Cl
> 250 | O=[N+]([O-])c1ccc2c(c1)Sc1cc(Br)ccc1N2
190 to 191 | COc1cc(OC)nc(Oc2cccc3c2C(=O)OC3C)n1 (centres undefined)
158 to 160 | COc1ccc(S(=O)(=O)Nc2cccc3c2Nc2ccccc2S3)cc1
262 to 263 | Cc1nc(C)c(Cc2cccs2)c(NCc2ccc(-c3ccccc3-c3nnn[nH]3)cc2)n1
158 to 160 | COC(=O)C1Oc2ccc(C)cc2Cc2cc(C)ccc2O1
112 to 113 | O=C(NCc1cccc(Br)c1)c1ccc2cnccc2n1
152 | COc1cccc(-c2cc(=O)c3cccc(C(=O)Nc4ccc(CCCCN5CCc6cc(OC)c(OC)cc6C5)cc4)c3o2)c1

melting point [°C] | SMILES
153 to 154 | CC1COc2cc(Oc3ccc(NC(=O)N(C)C)cn3)ccc21 (centres undefined)
132 to 134 | CCN1CCN=C1c1ccccc1C(=O)c1ccc(Cl)cc1
95 to 99 | OC(C=C(Cl)Cl)(Cn1cncn1)c1ccc(Cl)cc1 (centres undefined)
124 to 127 | OC(CCc1ccc2ccccc2c1)c1cnc2sc3c(n12)CCCCC3 (centres undefined)
224 to 225 | CC(=O)NCC1CN(c2ccc(N3CCN(c4nc5cc([N+](=O)[O-])ccc5o4)CC3)c(F)c2)C(=O)O1 (centres undefined)
101 to 102 | CC(=O)C1(C)COC(c2ccc([N+](=O)[O-])cc2)OC1 (centres undefined)
165 to 167 | Cc1ccccc1-c1nc(-c2ccc(-c3ccccc3)cc2)n[nH]1
306 to 308 | CC1CC(=O)NN=C1c1ccc(N=CNc2ccc(C3=NNC(=O)CC3C)cc2)cc1 (centres undefined)
157 to 159 | Oc1cc2c(-c3ccccc3)csc2c(Cl)c1Cl
206 to 210 | CN1C(=O)CC[C@]2(C)c3ccc(Sc4nc5c(Br)cccc5s4)cc3CC[C@@H]12
100 to 102 | O=C(Oc1ccccc1)C(=C1NCCCS1)[N+](=O)[O-]
88 to 90 | CC(C(=O)O)c1cc([N+](=O)[O-])ccc1F (centres undefined)
106 to 109 | O=C/C(=C/c1ccc(Cl)cc1Cl)c1ccc(Cl)cc1
> 350 | Oc1cc(-c2ccc(Cl)cc2)nc2ccc(F)cc12
113 to 114 | CCOC(=O)c1c(Cl)nc2ccccc2c1-c1ccc(F)cc1
233 to 234 | O=C(CCc1ccccc1)c1c(O)c2cccnc2n(-c2ccccc2)c1=O
139 to 141 | Cc1[nH]c2ccccc2c1C(C)c1cccnc1 (centres undefined)
239 to 243 | N#CC1=C(N)Oc2c(ccc3cnccc23)C1c1cccc([N+](=O)[O-])c1 (centres undefined)
90 to 92 | COC(=O)COCc1cc2cc(C(F)(F)F)ccc2n1S(=O)(=O)c1ccccc1
160 to 173 | CCCc1c(C)c2ccc(O)cc2oc1=O

melting point [°C] | SMILES
202 to 204 | O=C1Nc2ccc(-c3ccc(F)c(Cl)c3)cc2C12CCCC2
106 to 108 | COC(=O)c1cccc(C(=O)CC(=O)c2ccccc2)c1
162 to 163 | Cc1ccc(C(=O)n2c(C)c(CC(=O)O)c3cc4c(cc32)OCCO4)cc1
134 to 135 | O=C(CC(O)(c1cc(Cl)cc(Cl)c1)C(F)(F)F)c1ccc(F)c(Br)c1 (centres undefined)
57 to 58 | OCc1ccc(-c2ccc(OC(F)(F)F)cc2)nc1
177 | CCCCCCCCCC(C)(C)c1cc(C(=O)Nc2ccc(C(=O)O)cc2)ccc1OC
82 to 83 | CCOC(=O)Cc1nc(-c2ccccc2)oc1-c1cccs1
233 to 235 | COc1cc2ncnc(C3C(=O)N(C)c4ccccc43)c2cc1OC (centres undefined)
97 to 100 | O=C(COC(=O)Cc1ccccc1Nc1cc2c(cc1Cl)CCC2)OCc1ccccc1
196 to 198 | OCc1cccc(Nc2ncc(-c3ccccc3)s2)n1
235 to 240 | C#CCn1c(=O)nc(-c2ccc3c(c2)OCO3)c2cc3c(cc21)OCO3
175 to 177 | COC(=O)c1ccc(Cn2c(=O)c3cc(C(=O)NCc4cccc(OC)c4)sc3n(C)c2=O)cc1C
97 to 98 | CSCCNC(=O)c1sc(-c2cccnc2)nc1Cl
145 to 147 | CCS(=O)(=O)c1cc2c(O)cccc2o1
102 to 103 | Clc1cncc(Cl)c1C1=NC(c2ccc(Br)cc2)CO1 (centres undefined)
122 to 124 | COc1ccc(CNc2ncccc2C(=O)Nc2cccnc2Cl)cc1
173 to 175 | CNC(=O)c1ccc(CN2CCN(c3nc(C)c(C(C)=O)s3)C2=O)cc1
145 | CCN(CC)C(=O)c1cc2ccc(Cl)cc2c(-c2ccccc2Cl)n1
189 to 191 | O=[N+]([O-])c1ccc(Cl)c(N=C2NCCCN2)c1
